The experiment addresses T1, PKMYT1 enzyme (Homo sapiens, UniProt Q99640).
T1 construct: purchased Thermo Scientific A33387
T1 sequence (Q99640 1-499): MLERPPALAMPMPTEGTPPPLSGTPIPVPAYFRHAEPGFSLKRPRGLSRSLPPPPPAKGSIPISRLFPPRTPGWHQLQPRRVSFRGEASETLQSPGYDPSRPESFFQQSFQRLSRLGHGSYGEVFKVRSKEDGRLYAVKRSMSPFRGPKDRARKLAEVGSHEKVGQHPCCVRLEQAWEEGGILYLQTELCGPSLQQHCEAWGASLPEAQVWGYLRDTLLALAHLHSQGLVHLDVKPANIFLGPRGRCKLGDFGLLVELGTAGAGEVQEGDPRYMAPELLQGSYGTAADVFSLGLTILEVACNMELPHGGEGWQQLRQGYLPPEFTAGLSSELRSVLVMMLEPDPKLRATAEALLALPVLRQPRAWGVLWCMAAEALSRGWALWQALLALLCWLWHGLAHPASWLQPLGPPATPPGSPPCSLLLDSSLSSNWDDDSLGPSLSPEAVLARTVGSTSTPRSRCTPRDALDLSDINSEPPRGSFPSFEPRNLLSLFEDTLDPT
The experiment in a line: PKMYT1 enzyme inhibition activity, ADP-GLO method. Type of experiment: biochemical. Background: ADP-Glo first removes unused ATP, then detects ADP through luciferase.

Where [1] appears, read: PKMYT1 enzyme 10 nM, ATP 5 µM, 37°C 90 minutes; read-out: ADP-GLO IC50.
Where [2] appears, read: read-out: ADP-GLO IC50; PKMYT1 enzyme 10 nM, ATP 5 µM, 37°C 90 minutes.

Where two headings read alike, the source gives them in different places.

Experimental: Enzyme inhibition activity of compounds of the present disclosure
The enzyme activity of some of the example compounds was verified using the ADP-GLO method.
PKMYT1 enzyme protein was purchased from Thermo Scientific (Cat. No.: A33387), and the ADP-GLO kit was purchased from Promega (Cat. No.: V9103).
PKMYT1 enzyme activity reaction buffer: 70 mM HEPES, 3 mM MgCl2, 3 mM MnCl2, 50 µg mL-1PEG20000, 3 µM sodium orthovanadate, 1.2 mM DTT.
The reaction plate with the added compounds was centrifuged at 2500 rpm for 1 minute.
The prepared enzyme solution was added to the reaction plate, 5 µL per well, and the final concentration of enzyme was 10 nM. The reaction plate was centrifuged at 1000 rpm for 1 minute. The reaction plate was placed in an incubator at 37°C for 15 minutes.
The prepared ATP substrate solution was added to the reaction plate, 5 µL per well, and the final concentration of ATP was 5 µM. The reaction plate was centrifuged at 1000 rpm for 1 minute. After sealing the plate with aluminum foil, the plate was placed in an incubator and the reaction was carried out at 37°C for 90 minutes.
10 µL of ADP-glo™ reagent was added to stop the kinase reaction and consume unconsumed ATP, leaving only ADP and a very low ATP background. The reaction plate was centrifuged at 1000 rpm for 1 minute. After sealing the plate with aluminum foil, the reaction was carried out at room temperature for 60 minutes.
ADP was converted to ATP by adding 20 µL of kinase detection reagent, and luciferase and luciferin were introduced to detect ATP. The reaction plate was centrifuged at 1000 rpm for 1 minute. After sealing the plate with aluminum foil, the reaction was carried out at room temperature for 60 minutes.
The ADP-GLO luminescence signal values were read by the microplate reader PHERAstar, and the readings were analyzed.

`Cc1ccc(O)c(C)c1-n1c(N)c(C(N)=O)c2cnc(C3CCOCC3)nc21` [Example 18, 6-Amino-7-(3-hydroxy-2,6-dimethylphenyl)-2-(tetrahydro-2H-pyran-4-yl)-7H-pyrrolo[2,3-d]pyrimidine-5-carboxamide]: the IC50 under setting [1] amounted to 18.3 nM.
In the case of `Cc1c(O)cc(F)c(C)c1-n1c(N)c(C(N)=O)c2c3cnccc3c(C)cc21` [Example 208], the half-inhibitory concentration (IC50) under setting [1] was found to be 4.52 nM.
Regarding `Cc1ccc(O)c(C)c1-n1c(N)c(C(N)=O)c2cnc(N3CCOCC3)nc21` [Example 34, 6-Amino-7-(3-hydroxy-2,6-dimethylphenyl)-2-morpholino-7H-pyrrolo[2,3-d]pyrimidine-5-carboxamide], the IC50 under setting [1] is 25.7 nM.
With `COc1cc2c(C(N)=O)c(N)n(-c3c(C)cc(F)c(O)c3C)c2nc1C` (racemic) [Example 158], the IC50 under setting [1] is 8.18 nM.
Take `C=C(C)c1nc2c(cc1C)c(C(N)=O)c(N)n2-c1c(C)cc(F)c(O)c1C` [Example 152]: under setting [1], the IC50 was found to be 47.9 nM.
Take `Cc1c(O)cc(F)c(C)c1-n1c(N)c(C(N)=O)c2cc(C(C)C)cnc21` (atropisomer, axis not shown) [Example 113.1]: the IC50 under setting [1] came to 93.1 nM.
On to `Cc1cc(F)c(O)c(C)c1-n1c(N)c(C(N)=O)c2cc(S(C)(=O)=O)c(C)nc21` [Example 168], for which the half-inhibitory concentration (IC50) under setting [1] worked out at 4.92 nM.
Same read-out and setting: the value for `Cc1cc(F)c(O)c(C)c1-n1c(N)c(C(N)=O)c2cc(C(C)(C)O)c(C)nc21` (atropisomer, axis not shown) [Example 172.1] was 4.6 nM; that for `CCCN(CC)c1ncc2c(C(N)=O)c(N)n(-c3c(C)ccc(O)c3C)c2n1` [Example 83] was 41.8 nM.
On to `Cc1cc(F)c(O)c(C)c1-n1c(N)c(C(N)=O)c2cc3c(nc21)CCCC3` (atropisomer, axis not shown) [Example 177.2], for which the IC50 under setting [1] is 8.15 nM.
On to `Cc1ccc(O)c(C)c1-n1c(N)c(C(N)=O)c2cnc(C#CC(C)(C)O)nc21` [Example 26, 6-Amino-7-(3-hydroxy-2,6-dimethylphenyl)-2-(3-hydroxy-3-methylbut-1-yn-1-yl)-7H-pyrrolo[2,3-d]pyrimidine-5-carboxamide], for which the IC50 under setting [1] worked out at 11.3 nM.
Still for that read-out and setting: the value for `Cc1cc(F)c(O)c(C)c1-n1c(N)c(C(N)=O)c2cc(C(F)(F)F)cnc21` (racemic) [Example 154] was 13.9 nM; that for `CCc1ccc(O)c(CC)c1-n1c(N)c(C(N)=O)c2cnc(C)nc21` [Example 32, 6-Amino-7-(2,6-diethyl-3-hydroxyphenyl)-2-methyl-7H-pyrrolo[2,3-d]pyrimidine-5-carboxamide] was 263 nM; that for `Cc1cc(F)c(O)c(C)c1-n1c(N)c(C(N)=O)c2cc(C3=CCOCC3)c(C)nc21` [Example 165] was 33.4 nM.
Consider `Cc1cc(F)c(O)c(C)c1-n1c(N)c(C(N)=O)c2cc(OC(C)C)c(C)nc21` [Example 160], for which, under setting [1], the IC50 turned out to be 7.85 nM.
On to `CCNc1ncc2c(C(N)=O)c(N)n(-c3c(C)ccc(O)c3C)c2n1` [Example 75], for which the IC50 under setting [1] was found to be 5.5 nM.
Same read-out and setting: the value for `Cc1ccc(O)c(C)c1-n1c(N)c(C(N)=O)c2c(F)nc(C)c(F)c21` [Example 72] was 9.72 nM; that for `Cc1cc(F)c(O)c(C)c1-n1c(N)c(C(N)=O)c2cc(OC3CCC3)c(C)nc21` [Example 96] was 9.4 nM; that for `Cc1cc2c(C(N)=O)c(N)n(-c3c(C)c(O)cc(F)c3C)c2nc1-c1ccnn1C` [Example 124] was 10.4 nM.
Consider `COc1nc(C)nc2c1c(C(N)=O)c(N)n2-c1c(C)ccc(O)c1C` [Example 69], for which, under setting [2], the IC50 came to 15.6 nM.
On to `Cc1cc(F)c(O)c(C)c1-n1c(N)c(C(N)=O)c2cc(N3CCC3)c(C)nc21` (racemic) [Example 173], for which, under setting [1], the IC50 amounted to 7.68 nM.
As to `Cc1cc2c(C(N)=O)c(N)n(-c3c(C)c(O)c(Cl)c(F)c3C)c2nc1C` [Example 44, 2-Amino-1-(4-chloro-3-fluoro-5-hydroxy-2,6-dimethylphenyl)-5,6-dimethyl-1H-pyrrolo[2,3-b]pyridine-3-carboxamide], the IC50 under setting [1] was found to be 11.8 nM.
For the compound `Cc1cc2c(C(N)=O)c(N)n(-c3c(C)c(O)cc(F)c3C)c2c(F)c1C` [Example 70], the IC50 under setting [1] stood at 34 nM.
In the case of `Cc1cc2c(C(N)=O)c(N)n(-c3c(C)cc(F)c(O)c3C)c2nc1C` [Example 23, 2-Amino-1-(4-fluoro-3-hydroxy-2,6-dimethylphenyl)-5,6-dimethyl-1H-pyrrolo[2,3-b]pyridine-3-carboxamide], the IC50 under setting [1] was determined as 8.58 nM.
For the compound `Cc1cc(F)c(O)c(C)c1-n1c(N)c(C(N)=O)c2cc(C(C)(C)O)c(C)nc21` (racemic) [Example 172], the IC50 under setting [1] was 16.4 nM.
On to `Cc1ccc(O)c(C)c1-n1c(N)c(C(N)=O)c2cnc(N3CCC(F)(F)CC3)nc21` [Example 37, 6-Amino-2-(4,4-difluoropiperidin-1-yl)-7-(3-hydroxy-2,6-dimethylphenyl)-7H-pyrrolo[2,3-d]pyrimidine-5-carboxamide], for which, under setting [1], the IC50 stood at 3.09 nM.
Still for that read-out and setting: the value for `[2H]C([2H])([2H])c1c(O)c(F)cc(C)c1-n1c(N)c(C(N)=O)c2cc(C(F)(F)F)c(C)nc21` (racemic) [Example 195] was 4.6 nM; that for `Cc1cc(F)c(O)c(C)c1-n1c(N)c(C(N)=O)c2cc(C(F)(F)F)cnc21` (atropisomer, axis not shown) [Example 154.2] was 5.1 nM; that for `Cc1ccc(O)c(C)c1-n1c(N)c(C(N)=O)c2cnc(CC(C)C)nc21` [Example 57, 6-Amino-7-(3-hydroxy-2,6-dimethylphenyl)-2-isobutyl-7H-pyrrolo[2,3-d]pyrimidine-5-carboxamide] was 3.04 nM.
For `Cc1cc2c(C(N)=O)c(N)n(-c3c(C)c(O)cc(F)c3C)c2nc1C` (atropisomer, axis not shown) [Example 22], the IC50 under setting [1] is 85.5 nM.
With `Cc1cc2c(C(N)=O)c(N)n(-c3c(C)cc(Cl)c(O)c3C)c2nc1C` [Example 43, 2-Amino-1-(4-chloro-3-hydroxy-2,6-dimethylphenyl)-5,6-dimethyl-1H-pyrrolo[2,3-b]pyridine-3-carboxamide], the IC50 under setting [1] is 26.4 nM.
Take `C=C(C)c1nc2c(cc1C)c(C(N)=O)c(N)n2-c1c(C)c(O)cc(F)c1C` [Example 138]: under setting [1], the IC50 was 27 nM.
Still for that read-out and setting: to `CCc1ccc(O)c(C)c1-n1c(N)c(C(N)=O)c2cnc(C)nc21` [Example 68] belongs 299 nM.
`Cc1cc(F)c(O)c(C)c1-n1c(N)c(C(N)=O)c2cc(CC(C)C)c(C)nc21` (racemic) [Example 166]: under setting [1], the IC50 is 8.4 nM.
For the compound `Cc1ccc(O)c(C)c1-n1c(N)c(C(N)=O)c2cnc(Br)nc21` [Example 7, 6-Amino-2-bromo-7-(3-hydroxy-2,6-dimethylphenyl)-7H-pyrrolo[2,3-d]pyrimidine-5-carboxamide], the IC50 under setting [1] is 9.41 nM.
Regarding `Cc1cc(F)c(O)c(C)c1-n1c(N)c(C(N)=O)c2cc3c(nc21)CCCC3` (racemic) [Example 177], the IC50 under setting [1] came to 34.7 nM.
For `COc1ccc(CNc2ncc3c(C(N)=O)c(N)n(-c4c(C)ccc(O)c4C)c3n2)cc1` [Example 15, 6-Amino-7-(3-hydroxy-2,6-dimethylphenyl)-2-((4-methoxybenzyl)amino)-7H-pyrrolo[2,3-d]pyrimidine-5-carboxamide], the IC50 under setting [1] was found to be 168 nM.
`Cc1ccc(O)c(C)c1-n1c(N)c(C(N)=O)c2cnc(CC(C)C)nc21` (atropisomer, axis not shown) [Example 57.1]: under setting [2], the IC50 came out at 15.1 nM.
For `CCc1nc(C)nc2c1c(C(N)=O)c(N)n2-c1c(C)ccc(O)c1C` (racemic) [Example 66], the IC50 under setting [1] was 22.5 nM.
Take `COc1nc2c(cc1C)c(C(N)=O)c(N)n2-c1c(C)cc(F)c(O)c1C` [Example 167]: the IC50 under setting [1] is 22 nM.
For the compound `Cc1ccc(O)c(C)c1-n1c(N)c(C(N)=O)c2cnc(N(C)C)nc21` [Example 36, 6-Amino-2-(dimethylamino)-7-(3-hydroxy-2,6-dimethylphenyl)-7H-pyrrolo[2,3-d]pyrimidine-5-carboxamide], the IC50 under setting [1] came to 17.4 nM.
For the compound `Cc1ccc(O)c(C)c1-n1c(N)c(C(N)=O)c2cnc(NCC(F)F)nc21` [Example 77], the IC50 under setting [1] was found to be 20.2 nM.
Turning to `Cc1cc(F)c(O)c(C)c1-n1c(N)c(C(N)=O)c2cc(CO)c(C)nc21` [Example 164], the IC50 under setting [1] turned out to be 7.06 nM.
`Cc1ccc(O)c(C)c1-n1c(N)c(C(N)=O)c2cnc(C#N)nc21` [Example 14, 6-Amino-2-cyano-7-(3-hydroxy-2,6-dimethylphenyl)-7H-pyrrolo[2,3-d]pyrimidine-5-carboxamide]: the IC50 under setting [1] amounted to 24.3 nM.
On the same count and under the same terms, to `Cc1cc2c(C(N)=O)c(N)n(-c3c(C)cc(F)c(O)c3C)c2nc1CC(C)C` [Example 151] belongs 20.1 nM; to `Cc1cc2c(C(N)=O)c(N)n(-c3c(C)ccc(O)c3C)c2nc1N` [Example 95], 9.47 nM.
Consider `COc1ncc2c(C(N)=O)c(N)n(-c3c(C)ccc(O)c3C)c2n1` [Example 46, 6-Amino-7-(3-hydroxy-2,6-dimethylphenyl)-2-methoxy-7H-pyrrolo[2,3-d]pyrimidine-5-carboxamide], for which the IC50 under setting [1] was 43.6 nM.
As for `Cc1cc2c(C(N)=O)c(N)n(-c3c(C)cc(Br)c(O)c3C)c2nc1C` [Example 97], the IC50 under setting [1] amounted to 187 nM.
Same read-out and setting: the value for `[2H]C([2H])([2H])c1nc2c(cc1C(F)(F)F)c(C(N)=O)c(N)n2-c1c(C)cc(F)c(O)c1C` (atropisomer, axis not shown) [Example 194.1] was 5.3 nM; that for `Cc1ccc(O)c(C)c1-n1c(N)c(C(N)=O)c2cnc(-c3ccc(F)cc3)nc21` [Example 64] was 15.7 nM.

As a reminder, the IC50 is the concentration that inhibits the measured activity by half.

For the origin of these results see patent EP4624471A1, “PKMYT1 INHIBITOR, PREPARATION METHOD THEREFOR, AND PHARMACEUTICAL COMPOSITION AND USE THEREOF” (Shanghai Qilu Pharmaceutical Research and Development …, priority 2022, dated 2024).
